Reference: patent US20090187484A1, “Soil treatments with carbon dioxide” (Cleareso, LLC, priority 2008, published 2009)
One block for each molecule: values may come before it.

Experiments:
[1] = tested on: Larvae of the root weevil, Diaprepes abbreviatus; experiment: Immersion of root weevil larvae in test solutions (mortality, moribund effect); format: in vivo; details: for Mortality of larvae with individual compounds and formulations: five larvae; for black residue across all treatments: control to 5.0%; for toxicity judgement for the larvae: 0.1 to 5.0%, test terminated at 24 hours
Description: Larvae and pupae of the root weevil, Diaprepes abbreviatus, were immersed in a variety of compounds to understand their effect on the activity of this pest.
The criterion for toxicity with these larvae is the lack of nipping behavior and its consequent black residue from blood loss and the lack of spontaneous movement.
Experimental Design. Larvae and pupae were received from the Florida Dept. of Agriculture's rearing program in Gainesville, Fla. Larvae were shipped as 50-day larvae (larvae that will pupate in about 10 days). Both larvae and pupae were held at 27° C. in 12 hour cycles of light and dark in their containers as separate individuals until experimentation began.
In the testing, five larvae or pupae were removed from their rearing cups and placed in a 150 ml glass beaker. In testing the Soy Technologies Manufacturer's Base (SMTB), a 5% solution was mixed in either water or carbonated water by adding 10 ml of SMTB to a 250 ml beaker and then adding water or carbonated water to the 200 ml mark. The solutions were then immediately added to the beaker with the larvae or pupae to cover them. Controls with water or carbonated water alone were also included. There was a single tray of five larvae for each treatment at each time period and a five larvae control for each time period. Larvae were removed and placed on plastic weighing trays after 5,10, 15, 20, 25, and 30 minutes. At the end of 30 minutes all organisms were assessed for mortality. Trays with larvae were left on the bench tip for 24 hours and then another mortality assessment was made.
Concentration Series. With the results from the time series above, larvae were held in different concentrations of STMB for 30 minutes. After 30 minutes, solutions were poured off and the trays wiped dry. Assessments were made at 24 or 48 hours with a few assessments at 72 hours dependent on effects. Treatments were: water or carbonated water as controls, and 0.1, 0.5, 1.0, 2.0, 3.0, 4.0 and 5.0% concentrations in either distilled water or carbonated water. Five larvae were used for each control and treatment. Pupae were not used in this assessment.

[2] = Solubility and appearance of the aqueous test preparations; format: physicochemical

Molecule: Polyoxyethylene 10 tridecylether [24938-91-8]
black residue ([1]; 3 and 5% treatments, 48 hours): less black residue
Mortality of larvae with individual compounds and formulations ([1]; concentration 0.1 percent, 24 hours): 0
Mortality of larvae with individual compounds and formulations ([1]; concentration 0.1 percent, 48 hours): 0
Mortality of larvae with individual compounds and formulations ([1]; concentration 0.1 percent, 72 hours): 0
Mortality of larvae with individual compounds and formulations ([1]; concentration 1.0 percent, 24 hours): 2
Mortality of larvae with individual compounds and formulations ([1]; concentration 1.0 percent, 48 hours): 2
Mortality of larvae with individual compounds and formulations ([1]; concentration 1.0 percent, 72 hours): 2
Mortality of larvae with individual compounds and formulations ([1]; concentration 3.0 percent, 24 hours): 0
Mortality of larvae with individual compounds and formulations ([1]; concentration 3.0 percent, 48 hours): 0
Mortality of larvae with individual compounds and formulations ([1]; concentration 3.0 percent, 72 hours): 0
Mortality of larvae with individual compounds and formulations ([1]; concentration 5.0 percent, 24 hours): 0
Mortality of larvae with individual compounds and formulations ([1]; concentration 5.0 percent, 48 hours): 3
Mortality of larvae with individual compounds and formulations ([1]; concentration 5.0 percent, 72 hours): 3
black residue across all treatments ([1]; 24 hours): gradation of black residue from control to 5.0 with 5.0 having the least

Molecule: COC(=O)CCCC(=O)OC [1119-40-0, pentanedioic acid, dimethyl ester]
survival of larvae after 30 minutes ([1]; 0.1 to 5.0% treatments, end of 30 minutes immersion): All larvae were alive
black residue ([1]; 3 and 5% treatments, 48 hours): less black residue than the control

solubility of aqueous preparation ([2]; 0.1% concentration): soluble
solubility of aqueous preparation ([2]; 1.0% concentration): just soluble
solubility of aqueous preparation ([2]; 3.0% concentration): not soluble
solubility of aqueous preparation ([2]; 5.0% concentration): not soluble
Molecule: COC(=O)CCC(=O)OC [106-65-0, butanedioic acid, dimethyl ester]
toxicity judgement for the larvae [1]: non-toxic
black residue across all treatments ([1]; 24 hours): all treatments looked just like the control

solubility of aqueous preparation ([2]; 0.1% concentration): soluble
solubility of aqueous preparation ([2]; 1.0% concentration): not completely soluble
solubility of aqueous preparation ([2]; 3.0% concentration): not completely soluble
solubility of aqueous preparation ([2]; 5.0% concentration): not completely soluble
Molecule: COC(=O)CCCCC(=O)OC [627-93-0, Dimethyl hexanedioate]
appearance (black residue) compared with control ([1]; 0.1% treatment, 24 hours): looked identical
toxicity judgement for the larvae [1]: non-toxic
black residue ([1]; 5.0% treatment, 24 hours): only slightly less black residue than the 3.0% treatment
